Three compounds from patent publication US7052850B2, “Isolated human EDG-4 receptor” (priority 1997, dated 2006) can be followed below.

Holding throughout (assay type): cell-based
The test system of one assay is COS-1 cells. The assay can be described thus: IL-8 response in control COS-1 cells (empty vector pcDNA3). Particulars: control cells transfected with pcDNA3; 5 μm S1P.
Assay [1] has as its target T1, EDG-1 (Homo sapiens, UniProt P21453). Nature of the assay: SRE luciferase reporter (2XSREtk-p4Luc-zeo) in 293-EBNA cells, EDG-1. Particulars: Assay 3; 3 μM; 6 hours. (A reporter such as luciferase makes a cellular process visible.)
Procedure: (§2) The protocol described in Example 11 for Assay 1 was allowed except for the following changes: • 1) 100 mm plates of 293-EBNA ith a confluency of ˜80% were used for transfection, • 2) SRE Cotransfection: 0.5 μg of 2XSREtk-p4Luc-zeo reporter DNA and 3.5 μg pcDNA3, EDG-1, EDG-3 pC3-hE3P2, different from the clone used in Assay 2 of Example 11) or the newly cloned human EDG-4 (pC3-hedg4#36); NF-κB Cotransfection: 2 μg 6XNFκBtk-p4LUc-zeo reporter DNA and 2.0 μg pcDNA3, EDG-1, EDG-3 (pC3-hE3HP2), or EDG-4 (pC3-hedg4#36). Expression plasmid and reporter plasmid DNA samples were combined and diluted in 750 μl of DMEM/F12 (serum free media) and 20 μl Plus Reagent (Lipofectamine Plus Kit, Life Technologies Cat. 109640-13), and incubated at room temperature for 15 min. • 3) 30 μl Lipofectamine Reagent (Lipofectamine Plus Kit) was diluted in 750 μl DMEM/F12. The diluted Lipofectamine was then combined with the DNA/Plus mixture and incubated at room temperature for 15 min. • 4) The 293-EBNA plates were washed once with PBS and 5 ml DMEM/F12 was added to each plate. • 5) DNA/Plus/Lipofectamine mixture was added to each plate of 293-EBNA cells. […]
A further assay deals with pcDNA3-transfected cells. The assay can be described thus: Calcium microfluorimetry (fura-2), pcDNA3-transfected 293-EBNA cells. Particulars: 2 μM S1P. Here is the method:
Transfections were carried out with EDG receptors in 293-EBNA cells as described above, except that no reporter gene vector was included in the DNA mix. Two days after transfection, cells were harvested by trypsinization and plated at a density of 200,000 cells onto poly-D-lysine-coated coverslips in 100 μl of medium containing 0.5% FBS. After briefly allowing cell attachment to take place, 2 ml of medium without FBS was added and the cells were incubated overnight. The next day, cells were loaded with 5 μM fura-2 AM ester (Molecular Probes) for 60 min at RT, then washed and used for calcium microfluorimetry. […] Treatments were applied using a gravity-fed perfusion apparatus. Fluorescence emission was continuously monitored and recorded with PTI 2.060a software and analyzed with Sigma Plot software. Intracellular calcium concentrations were calculated by interpolation on a ratiometric fluorescence curve generated from fura-2 fluorescence in a calcium dilution series.

In the next assay the target is rat EDG-4 (Rattus norvegicus, UniProt P47752). Nature of the assay: NF-κB-tk-p4Luc luciferase reporter in 293-EBNA cells, rat EDG-4. More on the design: transient transfection with a eukaryotic expression vector expressing full-length rat edg-4 cDNA; expressed in transfected cells; host or cells: 293-EBNA.
Chain of rat EDG-4 (P47752 whole entry): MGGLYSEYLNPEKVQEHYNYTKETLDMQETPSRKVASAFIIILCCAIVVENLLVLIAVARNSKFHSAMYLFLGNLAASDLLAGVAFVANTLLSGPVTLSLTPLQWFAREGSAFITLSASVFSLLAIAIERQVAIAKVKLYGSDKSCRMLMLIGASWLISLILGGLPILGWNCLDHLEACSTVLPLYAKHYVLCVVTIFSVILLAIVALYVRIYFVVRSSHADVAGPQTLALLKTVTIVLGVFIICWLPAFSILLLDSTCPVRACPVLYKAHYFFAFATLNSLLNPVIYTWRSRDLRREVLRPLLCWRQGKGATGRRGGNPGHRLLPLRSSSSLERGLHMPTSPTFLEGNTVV
Assay [2] concerns the target T1, EDG-1. The assay can be described thus: NF-κB luciferase reporter in 293-EBNA cells, EDG-1. Particulars: Assay 3; 3 μM; 6 hours.
Procedure: as §2
For a further assay, the system named is human EDG-3. Nature of the assay: NF-κB luciferase reporter in 293-EBNA cells, human EDG-3. Particulars: for NF-κB response: original human EDG-3 clone (Assay 2).
The test system of assay [3] is Human Umbilical Vein Endothelial Cells (HUVEC). Nature of the assay: IL-8 response in primary cultured HUVEC. Particulars: 5 μM, 6 hr. Here is the method:
Cells: HUVEC (Clonetics, Cat. CC-2519) were passaged according to supplier's instructions and used at passage 3. Cells were plated at 20,000 cells/well into 24-well plates. […] LPA induced a 3-fold IL-8 increase at this concentration. […] As shown below in FIG. 23, three cloned edge receptors respond to LPA as an agonist, and all three appear to transduce NF-κB activation in an agonist-dependent manner.

The subject of assay [4] is EDG-7. Nature of the assay: SRE reporter, EDG-7.
In assay [5] the test system is EDG-7. The assay can be described thus: NF-κB reporter, EDG-7.
Assay [6] deals with T2, EDG-6 (Homo sapiens, UniProt Q9HBW0).
T2 construct: expressed in transfected cells; host or cells: 293-EBNA
T2 sequence (Q9HBW0 with tags, fused parts or gaps): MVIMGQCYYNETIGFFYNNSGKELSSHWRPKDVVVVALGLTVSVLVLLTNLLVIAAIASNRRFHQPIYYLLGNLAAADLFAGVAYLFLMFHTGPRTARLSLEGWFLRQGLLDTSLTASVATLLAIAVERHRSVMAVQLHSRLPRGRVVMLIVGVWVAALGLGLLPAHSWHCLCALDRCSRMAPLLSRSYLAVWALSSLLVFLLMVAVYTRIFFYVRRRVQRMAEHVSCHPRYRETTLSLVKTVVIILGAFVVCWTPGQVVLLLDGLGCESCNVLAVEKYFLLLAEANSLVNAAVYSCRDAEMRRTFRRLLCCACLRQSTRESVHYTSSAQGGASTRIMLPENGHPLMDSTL
Nature of the assay: AP-1 reporter in 293-EBNA cells, EDG-6. Particulars: 10 μM LPA. From the text: (§1) LPA, like S1P, is abundant in serum, but not plasma. Moreover, LPA is produced as a consequence of phospholipase A2 with or without the contribution of phospholipase D (depending on the phospholipid substrate). […] To date we have identified three subtypes of edg receptors that respond to LPA as an agonist. These are EDG-2, […] (referred to also as LPA1, LPA2 and LPA3, respectively (Chun, J, Contos, JJA and Munroe, DG. 1998. A growing family of receptor genes for lysophophatidid acid (LPA) and other lyso-phospholipids. Cell Biochem Biophys (in press)). The EDG-5 receptor is set out in co-pending U.S. application Ser. No. 08/997,803 to MUNROE et al., incorporated herein to reference and the amino acid sequence and cDNA sequence for the EDG-6 receptor is set out in FIGS. 21 and 22, respectively. To determine whether these receptors might mediate inflammatory responses, each was cotransfected separately with SRE, NF-κB or AP-1 reporter genes. […] This transcription factor, like NF-κB has been implicated in inflammatory and neoplastic signal transduction, though the gene targets of its action are largely distinct from those of NF-κB (Adcock I M. 1997. Transcription factors as activators of gene transcription; AP-1 and NF-κB. Monaldi Arch Chest Dis 52:178–186. Review). […]

The subject of assay [7] is pcDNA3-transfected 293-EBNA cells. The assay can be described thus: AP-1 reporter in 293-EBNA cells, empty vector pcDNA3. Particulars: 10 μM LPA.
From the text: as §1

The next assay has as its target T3, human EDG-5 (Homo sapiens, UniProt Q9UBY5).
T3 construct: expressed in transfected cells; host or cells: 293-EBNA
T3 sequence (Q9UBY5 1-353): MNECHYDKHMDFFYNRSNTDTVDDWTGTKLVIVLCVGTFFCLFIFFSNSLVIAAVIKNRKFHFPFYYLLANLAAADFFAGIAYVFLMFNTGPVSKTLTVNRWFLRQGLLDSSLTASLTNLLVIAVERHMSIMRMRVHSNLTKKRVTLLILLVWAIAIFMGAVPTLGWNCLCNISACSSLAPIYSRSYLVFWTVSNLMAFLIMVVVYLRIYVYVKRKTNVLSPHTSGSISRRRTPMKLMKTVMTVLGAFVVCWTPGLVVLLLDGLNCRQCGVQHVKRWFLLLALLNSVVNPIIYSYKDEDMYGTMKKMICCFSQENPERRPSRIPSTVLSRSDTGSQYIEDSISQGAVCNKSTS
The assay can be described thus: NF-κB luciferase reporter in 293-EBNA cells, human EDG-5. Particulars: 10 μM LPA overnight. Here is the method:
The above protocol for assay 1 was followed except for the following changes: • 1) 100 mm plates of 293-EBNA with a confluency of ˜80% were used for transfection. • 2) 3 μg NFκB-tk-p4Luc reporter DNA and 3 μg pC3-hedg1, pC3-hedg 3, pC3-redg4, pC3-hedg5 or pcDNA3 DNA was diluted in 240 μl OPTI-MEM (Gibco; Cat. 31985-062) • 3) 22 μl lipofectamine (Gibco; Cat. 1 8324-020) was diluted in 240 μl OPTI-MEM. • 4) The 293-EBNA plates were washed once with PBS and 7 ml OPTI-MEM was added to each plate. • 5) DNA/lipofectamine mixture was added to each plate of 293-EBNA cells. The plates were left for 4 hrs at 37° C. in a 5% CO2 incubator. Day 2: • 1) 0.01×10^6 cells were plated per well of 96-well Blackview plate coated with polyD-lysine. No cells were plated in the outside wells of the 96-well plate. Day 3: The following treatments were used for all transections:
293-EBNA cells were grown, lipofected in monolayer cultures, and pretreated as described above for Example 11, assay #1, except that NF-κB and AP-1 reporter-transfected cells were preteated for 6 hr in medium containing 0.5% […], then treated overnight in the same medium with or without 10 μM LPA.

Assay [8] concerns the target T2, EDG-6. The assay can be described thus: NF-κB reporter in 293-EBNA cells, EDG-6. Particulars: 10 μM LPA overnight.
From the text: as §1

T1 sequence (P21453 whole entry): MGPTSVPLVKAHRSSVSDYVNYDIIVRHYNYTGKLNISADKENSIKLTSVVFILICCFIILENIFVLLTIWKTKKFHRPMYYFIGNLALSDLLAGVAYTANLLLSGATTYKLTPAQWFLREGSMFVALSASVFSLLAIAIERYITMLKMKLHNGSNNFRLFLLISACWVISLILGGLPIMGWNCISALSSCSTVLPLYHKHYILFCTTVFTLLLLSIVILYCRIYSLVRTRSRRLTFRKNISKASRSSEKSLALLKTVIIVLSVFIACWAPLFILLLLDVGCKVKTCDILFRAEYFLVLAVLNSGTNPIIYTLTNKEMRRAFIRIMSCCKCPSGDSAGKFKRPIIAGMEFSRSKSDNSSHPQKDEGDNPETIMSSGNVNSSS
Procedure for human EDG-3: Expression plasmid and reporter plasmid DNA samples were combined and diluted in 750 μl of DMEM/F12 (serum free media) and 20 μl Plus Reagent (Lipofectamine Plus Kit, Life Technologies Cat. 109640-13), and incubated at room temperature for 15 min. • 3) 30 μl Lipofectamine Reagent (Lipofectamine Plus Kit) was diluted in 750 μl DMEM/F12. The diluted Lipofectamine was then combined with the DNA/Plus mixture and incubated at room temperature for 15 min. • 4) The 293-EBNA plates were washed once with PBS and 5 ml DMEM/F12 was added to each plate. • 5) DNA/Plus/Lipofectamine mixture was added to each plate of 293-EBNA cells. The plates were left for 3 hr at 37° C. in a 5% CO2 incubator. • 6) The transfection medium was replaced with serum-free DMEM/F12 for cells transfected with 2XSREtk-p4Luc-zeo reporter DNA and with DMEM/F12 plus 10% FBS for cells transfected with 6XNFκBtk-p4Luc-zeo reporter DNA. • Day 2. • 2) Transfected cells were harvested by trypsinization and 50,000 cells per well were plated in 96-well Blackview plates coated with poly D-lysine Becton Dickinson Labware, Cat. 40640). […]
From the text for rat EDG-4: First, the NF-κB response element was reconstructed in a new reporter construct (p4Luc) suitable for stable maintenance as an episome in primate cells. […] The p4-Luc reporter used the backbone of pREP4 (Invitrogen; Cat. V004-50), which contains the EBV orgin of replicaiton (EBVoni), as well as the EBNA-1 viral antigen required to maintain EBVoti containing plasmids as stable episoms in primate cells, and a prokayotic selection marker. A dominant eukaryotic selection marker for zeocin resistance was substituted for expression in pREP4. The promoter of pREP4 was then excised and replaced with a multi-cloning site for introduction of promoter/enhancer inserts. The NF-κB inser of the previous CAT reporter was subcloned into this site and all cloning junctions were sequenced to verify the structure of the plasmid, called NF-κB-tk-p4Luc.
• 1) 150 mm plates of 293-EBNA obtained from Invitrogen (Cat. R620-07) with a confluency of 18 80% were used for transfection. • 2) 6.6 μg NF-κB-tk-p4Luc reporter DNA and 6.6 μg of pC3-redg4 (expressing rat EDG-4), or pcDNA3 DNA was diluted in 500 μl OPTI-MEM (Gibco; Cat. 31985-062) • 3) 96.8 μl Lipofectamine (Gibco; Cat. 18324-020) was diluted in 500 μl of OPTI-MEM. • 4) The 2 solutions were mixed gently and the tube was incubated for 30 min at room temperature. • 5) The 293-EBNA plates were washed once with PBS and 13 ml OPTI-MEM was added to each plate, • 6) 6 ml OPTI-UMM was added to each transfection tube and this was added to a plate of 293EBNA cells. The plates were left for 4 hrs at 37° C. in a 5% CO2 incubator. • 7) After 4 his, the media was removed and replaced with frest 10% FBS media. Day 2: • 1) Transfected cells were washed, typsinized with 1× tryspin, resuspended in 10 ml media and counted. • 2) 0.02×10 ^6 cells were plated per well of a 96-well Blackview plate coated with polyD-lysine. No cells were plated in the outside wells of the 96-well plate. Two 96-well plates were seeded for each transfection. Day 3: • 1) Cells were washed with PBS and 140 μl serum-free media (SFM) added to each well. Plates were incubated in 37° C. incubator for 6 hrs. • 2) After 6 hrs, media was removed and cells treated with compounds diluted in 0.5% FBS media (140 μl added to each well).
Day 4 Luciferase Assay • 1) Luclite kit (Packard; Cat. 6016911) was used for luciferase assay. All reagents were brought to room temperature before use. • 2) Supernatant was transferred to a new 96-well plate and stored at −20 C. for rupture IL-8 measurement. • 3) 50 μl 0.5 M HEPES pH 7.8 buffer (1 mM MgCl21 mM CaCl2) was addeded to all wells of 96-well plate. Black adhesive backing (polyfitronics) was aligned to the bottom of the viewplate. • 4) Luclite substrate was made up by adding 10 ml substate diluent to 1 vial lyophilized substrate. Reconstituted substrate was kept under a dark container. 50 μl substrate was added to each well. • 5) A clear adhesive plate sealer was adjusted on to the viewplate and sealer rubbed over the plate with a Kimwipe. The plate was shaken on a plate shaker at 500 rpm for 5 seconds right side up and then upside down. A stop plate was placed on top of the blackview plate to keep it in the dark. • 6) Plates were incubated at room temperature for 30 min. • 7) After incubation, plates were counted in a 12 detector Packard Top Count on a program without dark delay.

For `CCCCCCCCCCCCC/C=C/[C@@H](O)[C@@H](N)COP(=O)(O)O` [S1P, sphingosine 1-phosphate], the “IL-8 response to S1P” value in the assay on COS-1 cells is “No IL-8”. At EDG-1 [1], the “increase in luciferase activity (SRE reporter)” value was found to be 8 fold. Also, in the assay on pcDNA3-transfected cells, the “change in intracellular calcium” value is given as “approximately 60 nM”. Further, the “increase in luciferase activity” value on rat EDG-4 (Assay 1, 1 μM S1P, 24 hrs) is reported as 2 fold; on rat EDG-4 (Assay 1, 5 μM or 10 μM S1P, 24 hrs), 4–4.5 fold; at rat EDG-4 (Assay 2, 3 μM), 3.5 fold. Further, the “luciferase activity (NF-κB reporter)” value at EDG-1 [2] is listed as “no increase in luciferase activity”. The NF-κB response entry in the assay with human EDG-3 is “did not produce a NF-κB response”. The “IL-8 levels, increase over untreated controls” value in assay [3] is “approximately 5 fold”. For the same compound, the SRE reporter response entry in the assay on EDG-7 [4] is “respond through the SRE reporter”. For the same compound, the NF-κB reporter response result in the assay with EDG-7 [5] was “fail to signal through NF-κB reporters”.

As to `CCCCCCCCCCCCC/C=C/[C@@H](O)[C@@H](N)COP(=O)([O-])OCC[N+](C)(C)C` [SPC, sphingosylphosphorylcholine], on rat EDG-4 (Assay 1, 24 hrs), the “induction of NF-κB reporter” value is “induced the reporter gene”. For the same compound, on rat EDG-4 (Assay 2, 3 μM), the “increase in luciferase activity” value is 4 fold. Besides, in the assay on human EDG-3 (Assay 3, pancreas EDG-3 clone, 3 μM), the “induction of the NF-κB reporter gene compared to untreated controls” value was “about 8 fold”. The NF-κB response result with human EDG-3 is “did not produce a NF-κB response”. Moreover, the “IL-8 levels, increase over untreated controls” value in assay [3] is recorded as “Marginal increases”.

Take lysophosphatidic acid [LPA]: the “induction of the AP-1 reporter” value on EDG-6 [6] is listed as “strongly induced”. The “endogenous AP-1 reporter response vs untreated control cells” value in [7] is recorded as “about 1.5 fold”. For the same compound, the “activation of the NF-κB reporter” value at human EDG-5 and on EDG-6 [8] was 3–4 fold each time.
